Test [1] deals with HCV genotype 1a (H77 strain) replicon in HUH-7 cells. Briefly: HCV replicon luciferase reporter assay, genotype 1a. The following applies: Hepatitis C virus, Huh-7, 72 h, HCV genotype 1a replicon luciferase assay, 3 days incubation. The format is cell-based. From the text:
(§1) Generation of HCV Replicon
(§2) An HCV replicon whole cell system was established as described by Lohmann V, Korner F, Koch J, Herian U, Theilmann L, Bartenschlager R., Science 285(5424):110-3 (1999) and modified to introduce a luciferase reporter, as first described by Krieger et al (Krieger N, Lohmann V, and Bartenschlager R, J. Virol. 75(10):4614-4624 (2001)). CDNA encoding a humanized form of the Renilla luciferase gene and a linker sequence fused directly to the 3′-end of the luciferase gene were introduced into the replicon construct using an Asc1 restriction site located in core, directly upstream of the neomycin marker gene. The adaptive mutation at position 1179 (serine to isoleucine) was also introduced (Blight K J, Kolykhalov, A A, Rice, C M, Science 290(5498):1972-1974). A stable cell line constitutively expressing this HCV replicon construct was generated by first linearizing plasmid DNAs with ScaI. RNA transcripts were synthesized in vitro using the T7 MegaScript transcription kit (Ambion, Austin, Tex.) according to manufacturer's directions. In vitro transcripts of the cDNA were transfected into the human hepatoma cell line, HUH-7. […] Resulting cell lines were characterized for positive and negative strand RNA production and protein production over time.
A stable HCV replicon luciferase reporter cell line representing the genotype 1a H77 strain (Yanagi M, Purcell R H, Emerson S U, et al. Transcripts from a single full-length cDNA clone of hepatitis C virus are infectious when directly transfected into the liver of a chimpanzee. Proc Natl Acad Sci USA 1997; 94(16):8738-8743) was generated as described previously for the genotype 1b(Con1) replicon luciferase cell line. The replicon construct was modified by introducing mutations were introduced into the genes encoding the NS3 helicase domain (proline replaced by leucine at position 1496) and NSSA (serine to isoleucine at position 2204) to improve replication in cell culture.
(§3) HCV Replicon Luciferase Reporter Assay
(§4) HCV replicon luciferase assays were developed to monitor the inhibitory effects of compounds described in the disclosure on HCV genotypes 1a and 1b viral replication. HUH-7 cells, constitutively expressing the HCV replicon, were grown in Dulbecco's Modified Eagle Media (DMEM) (Gibco-BRL) containing 10% Fetal calf serum (FCS) (Sigma) and 1 mg/mL G418 (Gibco-BRL). Compounds were serially diluted 3 folds in DMSO for a twenty-point titration and subsequently transferred to sterile 384-well tissue-culture treated plates (Corning cat #3571). The plates were then seeded with 50 μL of cells at a density of 3.0×10^3 cells/well in DMEM containing 4% FCS (final DMSO concentration at 0.5%). After 3 days incubation at 37° C., cells were analyzed for Renilla Luciferase activity using the EnduRen as substrate (Promega cat #E6485). The EnduRen substrate was diluted in DMEM and then added to the plates to a final concentration of 7.5 μM. The plates were incubated for 2 hrs at 37° C. and then read immediately for 30 seconds with Viewlux Imager (PerkinElmer) using a luminescence program. To assess cytotoxicity of compounds, CC50 values were generated by multiplexing the EnduRen-containing plates with Cell Titer-Blue (Promega, cat # G8082). Cell-Titer Blue (3 μL) was added to each well and incubated for 8 hrs at 37° C. The fluorescence signal from each well was read, with an excitation wavelength at 525/10 nm and an emission wavelength of 598/10 nm, using the Viewlux Imager.
(§5) The EC50 values for compounds were calculated by using a four-parameter logistic equation: y=A+((B−A)/(1+((C/x)^D))), where A and B denotes minimal and maximal % inhibition, respectively, C is the EC50, D is the hill slope and x represents compound concentration.
In general terms: In antiviral work, replicon cells carry a viral genome segment that copies itself.

Test [2] relates to HCV genotype 1b (Con1) replicon in HUH-7 cells. The test is described as follows: HCV replicon luciferase reporter assay, genotype 1b. It counts as cell-based. The following applies: Hepatitis C virus, Huh-7, 72 h, HCV genotype 1b replicon luciferase assay, 3 days incubation.
Description: as §1
as §2, with “time. […]” for “time.”
as §3, §4, §5

[3] abbreviates: range class, read-out: LE_1a (EC50, range).
Setting [4] is: range class, read-out: LE_1b (EC50, range).
[5] abbreviates: GETYPE1A, range class, read-out: LE_1a (EC50, range).
[6] abbreviates: GETYPE1B, range class, read-out: LE_1b (EC50, range).

In general, pEC50 refers to the negative decadic logarithm of the EC50, by convention in mol/L.

pEC50: −log10 of the molar value. Like-named read-outs stand apart in the source and are kept apart here.

In the case of `COc1cnc(O[C@@H]2C[C@H]3C(=O)N[C@]4(C(=O)NS(=O)(=O)C5CC5)C[C@H]4/C=C\CC[C@@H](C)C[C@@H](C)[C@H](NC(=O)OC(C)(C)C(F)(F)F)C(=O)N3C2)c2cccc(Cl)c12` [Compound 27, 1,1,1-trifluoro-2-methylpropan-2-yl((2R,6S,7R,9R,13aS,14aR,16aS,Z)-2-((5-chloro-4-methoxyisoquinolin-1-yl)oxy)-14a-((cyclopropylsulfonyl)carbamoyl)-7,9-dimethyl-5,16-dioxo-1,2,3,5,6,7,8,9,10,11,13a,14,14a,15,16,16a-hexadecahydrocyclopropa[e]pyrrolo[1,2-a][1,4]diazacyclopentadecin-6-yl)carbamate], the pEC50 in test [1] (setting [3]) and in test [2] (setting [4]) was greater than 8.26 in each case.

Regarding `COc1cnc(O[C@@H]2C[C@H]3C(=O)N[C@]4(C(=O)NS(=O)(=O)C5CC5)C[C@H]4/C=C\CC[C@H](C)C[C@@H](C)[C@H](NC(=O)OC(C)(C)C(F)(F)F)C(=O)N3C2)c2cccc(Cl)c12` [Compound 28, 1,1,1-trifluoro-2-methylpropan-2-yl((2R,6S,7R,9S,13aS,14aR,16aS,Z)-2-((5-chloro-4-methoxyisoquinolin-1-yl)oxy)-14a-((cyclopropylsulfonyl)carbamoyl)-7,9-dimethyl-5,16-dioxo-1,2,3,5,6,7,8,9,10,11,13a,14,14a,15,16,16a-hexadecahydrocyclopropa[e]pyrrolo[1,2-a][1,4]diazacyclopentadecin-6-yl)carbamate], the pEC50 in test [1] (setting [3]) and in test [2] (setting [4]) was greater than 8.26 throughout.

On to `COc1cnc(O[C@@H]2C[C@H]3C(=O)N[C@]4(C(=O)NS(=O)(=O)C5(F)CC5)C[C@H]4/C=C\CC[C@@H](C)C[C@@H](C)[C@H](NC(=O)OC(C)(C)C(F)(F)F)C(=O)N3C2)c2cccc(Cl)c12` [Compound 30], for which the pEC50 in test [1] (setting [5]) and in test [2] (setting [6]) was greater than 8.26 each time.

Turning to `C[C@@H]1CC/C=C\[C@@H]2C[C@@]2(C(=O)NS(=O)(=O)C2CC2)NC(=O)[C@@H]2C[C@@H](Oc3ncc(OC4CC4)c4c(Cl)cccc34)CN2C(=O)[C@@H](NC(=O)OC(C)(C)C(F)(F)F)[C@H](C)C1` [Compound 32], the pEC50 in test [1] (setting [5]) and in test [2] (setting [6]) was greater than 8.26 throughout.

With `CC(C)n1nc(O[C@@H]2C[C@H]3C(=O)N[C@]4(C(=O)NS(=O)(=O)C5CC5)C[C@H]4/C=C\CC[C@H](C)C[C@@H](C)[C@H](NC(=O)OC(C)(C)C)C(=O)N3C2)c2ccccc2c1=O` [Compound 1001, tert-butyl ((2R,6S,7R,9S,13aS,14aR,16aS,Z)-14a-((cyclopropylsulfonyl)carbamoyl)-2-((3-isopropyl-4-oxo-3,4-dihydrophthalazin-1-yl)oxy)-7,9-dimethyl-5,16-dioxo-1,2,3,5,6,7,8,9,10,11,13a,14,14a,15,16,16a-hexadecahydrocyclopropa[e]pyrrolo[1,2-a][1,4]diazacyclopentadecin-6-yl)carbamate], the pEC50 in test [1] (setting [3]) is less than 7.06; in test [1] (read-out: LE_1a (EC50)) it was no more than 6.00; in test [2] (setting [4]) it was less than 7.06; in test [2] (read-out: LE_1b (EC50)), 6.35.

With `CC(C)n1nc(O[C@@H]2C[C@H]3C(=O)N[C@]4(C(=O)NS(=O)(=O)C5CC5)C[C@H]4/C=C\CC[C@@H](C)C[C@@H](C)[C@H](NC(=O)OC(C)(C)C)C(=O)N3C2)c2ccccc2c1=O` [Compound 1002, tert-butyl ((2R,6S,7R,9R,13aS,14aR,16aS,Z)-14a-((cyclopropylsulfonyl)carbamoyl)-2-((3-isopropyl-4-oxo-3,4-dihydrophthalazin-1-yl)oxy)-7,9-dimethyl-5,16-dioxo-1,2,3,5,6,7,8,9,10,11,13a,14,14a,15,16,16a-hexadecahydrocyclopropa[e]pyrrolo[1,2-a][1,4]diazacyclopentadecin-6-yl)carbamate], the pEC50 in test [1] (setting [3]) is less than 7.06; in test [2] (setting [4]), 6.99 to 8.32.

In the case of `CC(C)n1nc(O[C@@H]2C[C@H]3C(=O)N[C@]4(C(=O)NS(=O)(=O)C5(C)CC5)C[C@H]4/C=C\CC[C@H](C)C[C@@H](C)[C@H](NC(=O)OC(C)(C)C)C(=O)N3C2)c2ccccc2c1=O` [Compound 1003, tert-butyl ((2R,6S,7R,9S,13aS,14aR,16aS,Z)-2-((3-isopropyl-4-oxo-3,4-dihydrophthalazin-1-yl)oxy)-7,9-dimethyl-14a-(((1-methylcyclopropyl)sulfonyl)carbamoyl)-5,16-dioxo-1,2,3,5,6,7,8,9,10,11,13a,14,14a,15,16,16a-hexadecahydrocyclopropa[e]pyrrolo[1,2-a][1,4]diazacyclopentadecin-6-yl)carbamate], the pEC50 in test [1] (setting [3]) and in test [2] (setting [4]) was less than 7.06 in each case.

For the molecule `CC(C)n1nc(O[C@@H]2C[C@H]3C(=O)N[C@]4(C(=O)NS(=O)(=O)C5(C)CC5)C[C@H]4/C=C\CC[C@@H](C)C[C@@H](C)[C@H](NC(=O)OC(C)(C)C)C(=O)N3C2)c2ccccc2c1=O` [Compound 1004, tert-butyl ((2R,6S,7R,9R,13aS,14aR,16aS,Z)-2-((3-isopropyl-4-oxo-3,4-dihydrophthalazin-1-yl)oxy)-7,9-dimethyl-14a-(((1-methylcyclopropyl)sulfonyl)carbamoyl)-5,16-dioxo-1,2,3,5,6,7,8,9,10,11,13a,14,14a,15,16,16a-hexadecahydrocyclopropa[e]pyrrolo[1,2-a][1,4]diazacyclopentadecin-6-yl)carbamate], the pEC50 in test [1] (setting [3]) is less than 7.06; in test [1] (read-out: LE_1a (EC50)), 6.96; in test [2] (setting [4]), 6.99 to 8.32; in test [2] (read-out: LE_1b (EC50)), 7.31.

As to `COCCn1nc(O[C@@H]2C[C@H]3C(=O)N[C@]4(C(=O)NS(=O)(=O)C5(C)CC5)C[C@H]4/C=C\CC[C@H](C)C[C@@H](C)[C@H](NC(=O)OC(C)(C)C)C(=O)N3C2)c2ccccc2c1=O` [Compound 1005, tert-butyl ((2R,6S,7R,9S,13aS,14aR,16aS,Z)-2-((3-(2-methoxyethyl)-4-oxo-3,4-dihydrophthalazin-1-yl)oxy)-7,9-dimethyl-14a-(((1-methylcyclopropyl)sulfonyl)carbamoyl)-5,16-dioxo-1,2,3,5,6,7,8,9,10,11,13a,14,14a,15,16,16a-hexadecahydrocyclopropa[e]pyrrolo[1,2-a][1,4]diazacyclopentadecin-6-yl)carbamate], the pEC50 in test [1] (setting [3]) and in test [2] (setting [4]) was less than 7.06 in each case.

For the origin of these results see patent US9499550B2 (BRISTOL-MYERS SQUIBB COMPANY, priority 2012, dated 2016).
